Data on 15 molecules can be found in ChEMBL document CHEMBL5390234 (Bioorg Med Chem Lett, 2023).

Converted amounts (≈) assume the structure as drawn.

What is called logD is the decadic logarithm of the distribution of all forms, ionised or not, between an organic phase and buffer at a given pH. A higher logD goes with higher lipophilicity. As usually defined, the Papp A→B is how fast a substance crosses the layer from the apical side. In general, solubility refers to the concentration that dissolves in the medium under given conditions. One may read the AUC(0-t) as the area under the concentration-time curve up to a stated or last time point. Lower therefore signals low exposure. By bioavailability is commonly meant the share of a dose that reaches the circulation, judged against a reference dose that is usually intravenous. Read a high bioavailability as good availability.

Data set [1] in a line: Lipophilicity, logD of compound at pH 7.4. Type of data set: physicochemical. Particulars: buffer.
Data set [2] in a line: Volume of distribution at steady state in mouse. It counts as ADME, organism-based. Particulars: in vivo, read-out: Vdss.
Data set [3] is described as follows: Apparent permeability of compound across apical to basolateral in human Caco-2 cells at 10 uM. It counts as ADME, cell-based.
The nature of data set [4]: Solubility of the compound in aqueous phosphate buffer at pH 7.4 incubated for 24 hrs. Type of data set: physicochemical.
Data set [5] is described as follows: AUC (0 to t) in mouse plasma at 30 mg/kg, po. It counts as ADME, organism-based. More on the design: dose 30 mg/kg, route po.
The nature of data set [6]: AUC (0 to t) in mouse plasma at 1 mg/kg, po. Type of data set: ADME, organism-based. Also on record: dose 1 mg/kg, route po.
Data set [7] is described as follows: Oral bioavailability in mouse at 30 mg/kg. It counts as ADME, organism-based. The conditions noted are these: in vivo.
Data set [8] is described as follows: Oral bioavailability in mouse at 1 mg/kg or 0.5 mg/kg, iv. It counts as ADME, organism-based. Particulars: in vivo.

In data set [1], `CCNc1nc(N)nc2nc(-c3ccc[nH]c3=O)ccc12` displayed a log distribution coefficient (logD) of 0.8.
As to `CC1(Nc2nc(N)nc3nc(-c4cc[nH]n4)ccc23)CC1`, the Vd in data set [2] turned out to be 7.8 L/kg. For the same molecule, the Papp A→B at 10 µM in data set [3] came to 4.2 ×10⁻⁶ cm/s. Moreover, the solubility at 24 h in data set [4] came to 910 µM (≈ 256 µg/mL). In addition, the AUC(0-t) is 7.5 µM·h in data set [5] and 0.2 µM·h in data set [6]. Further, the bioavailability in data set [7] was 70%; in data set [8], 56%.
As for `CCNc1nc(N)nc2cc(-n3cccn3)cnc12`, in data set [1], the logD was 2.1.
`CCNc1cc(N)nc2cc(-n3cccn3)ccc12`: the logD in data set [1] was 1.5.
Same read-out and setting: the result for `Nc1cc(NCCn2cccn2)c2ccccc2n1` reads 0.5.
On the same count and under the same terms, the value for `Nc1nc(NCCn2cccn2)c2ccc(-c3cc[nH]n3)nc2n1` was 1.4.
Turning to `CC1(Nc2nc(N)nc3cc(-c4cc[nH]n4)ccc23)CC1`, in data set [2], the Vd stood at 4.7 L/kg. Besides, in data set [3], the apical-to-basolateral permeability (Papp A→B) at 10 µM was determined as 9 ×10⁻⁶ cm/s. In addition, the solubility at 24 h in data set [4] was > 1000 µM. The molecule further gave a bioavailability in data set [8] of 25%.
Consider `c1cnn(CCNc2ccnc3cc(-n4cccn4)ccc23)c1`, for which, in data set [1], the logD is 1.8.
With `CCNc1nc(N)nc2nc(-n3cccn3)ccc12`, the logD in data set [1] was found to be 2.
Turning to `Nc1cc(NCCn2cccn2)c2ccc(-n3cccn3)cc2n1`, in data set [2], the Vd worked out at 3.1 L/kg. In data set [3], the apical-to-basolateral permeability (Papp A→B) at 10 µM came to 2.3 ×10⁻⁶ cm/s. For the same molecule, the pH-dependent lipophilicity (logD) in data set [1] turned out to be 1.7. The molecule also yielded a bioavailability in data set [8] of 1.1%.
In turn, `CCNc1nc(N)nc2nc(-c3cc[nH]n3)ccc12` came in with a logD in data set [1] of 1.4.
On the same count and under the same terms, the result for `CCNc1nc(N)nc2cc(-c3cc[nH]n3)ccc12` reads 1.8.
For `Nc1nc(NC2CC2)c2ccc(-c3cc[nH]n3)nc2n1`, in data set [2], the Vd came to 13 L/kg. Moreover, the Papp A→B at 10 µM in data set [3] was 3.7 ×10⁻⁶ cm/s. Also, in data set [4], the solubility at 24 h is > 1000 µM. This molecule yielded a bioavailability in data set [8] of 7.5%.
Consider `CCNc1nc(N)nc2cc(-n3cccn3)ccc12`, for which, in data set [1], the logD is 1.8.
Take `CCN(Cc1nc2c(N)nc3cc(-c4cc[nH]n4)ccc3c2[nH]1)C(C)=O` [BMS-986299]: in data set [2], the Vd turned out to be 0.8 L/kg. Further, the apical-to-basolateral permeability (Papp A→B) at 10 µM in data set [3] was 0.6 ×10⁻⁶ cm/s. The molecule further returned a pH-dependent lipophilicity (logD) in data set [1] of 1.8.
